{"source": "PubChem BioAssay AID1963971", "about": "(Molecular Pharmacology Branch, DTP, NCI, 2024);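 note: spheroids exposed to compounds for seven days before read-out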", "system": "953936-095-R-J2-PDC spheroids with HUVEC/MSC, viability", "test": "Anticancer human tumor 953936-095-R-J2-PDC patient-derived cervical squamous cell carcinoma cell line growth inhibition [PI3K]", "settings": "for IC50: curve of first compound; for viability, T/C: stronger effect = lower value", "how_it_was_run": "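High-throughput combination screen: PI3K inhibitors crossed with targeted small molecules on complex spheroids of tumor cells, HUVEC and MSCs at 37 degrees C, 5% CO2. Top concentration was at or near clinical Cmax (otherwise 10 microM), with half-log decrements.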", "key": {"[1]": {"settings": "second compound 0.00316 µM, first compound 0.0316 µM"}, "[2]": {"settings": "second compound 0.00316 µM, first compound 0.1 µM"}, "[3]": {"settings": "second compound 0.01 µM, first compound 0.0316 µM"}, "[4]": {"settings": "second compound 0.01 µM, first compound 0.1 µM"}, "[5]": {"settings": "second compound 0.0316 µM, first compound 0.0316 µM"}, "[6]": {"settings": "second compound 0.0316 µM, first compound 0.1 µM"}, "[7]": {"settings": "second compound 0.1 µM, first compound 0.0316 µM"}, "[8]": {"settings": "second compound 0.1 µM, first compound 0.1 µM"}, "[9]": {"settings": "second compound 0.316 µM, first compound 0.0316 µM"}, "[10]": {"settings": "second compound 0.316 µM, first compound 0.1 µM"}, "[11]": {"settings": "second compound 1 µM, first compound 0.0316 µM"}, "[12]": {"settings": "second compound 1 µM, first compound 0.1 µM"}}, "data": [{"smiles": "C[C@@H](NC(=O)c1ncnc(N)c1Cl)c1ncc(C(=O)Nc2cc(C(F)(F)F)c(Cl)cn2)s1", "note": "+ COc1c(OCCCN2CCOCC2)ccc2c3n(c(=NC(=O)c4cnc(N)nc4)nc12)CCN3", "values": [{"measurement": "IC50", "setting": "second compound 0.00316 µM", "value": "> 10000", "unit": "nM"}, {"measurement": "IC50", "setting": "second compound 0.01 µM", "value": "> 10000", "unit": "nM"}, {"measurement": "IC50", "setting": "second compound 0.0316 µM", "value": "< 31.6", "unit": "nM"}, {"measurement": "IC50", "setting": "second compound 0.1 µM", "value": "< 31.6", "unit": "nM"}, {"measurement": "IC50", "setting": "second compound 0.316 µM", "value": "< 31.6", "unit": "nM"}, {"measurement": "IC50", "setting": "second compound 1 µM", "value": "< 31.6", "unit": "nM"}, {"measurement": "viability, T/C", "setting": "[1]", "value": 89.7, "unit": "%"}, {"measurement": "viability, T/C", "setting": "[2]", "value": 91.8, "unit": "%"}, {"measurement": "viability, T/C", "setting": "second compound 0.00316 µM, first compound 0.316 µM", "value": 88.7, "unit": "%"}, {"measurement": "viability, T/C", "setting": "second compound 0.00316 µM, first compound 1 µM", "value": 104, "unit": "%"}, {"measurement": "viability, T/C", "setting": "second compound 0.00316 µM, first compound 3.16 µM", "value": 110, "unit": "%"}, {"measurement": "viability, T/C", "setting": "second compound 0.00316 µM, first compound 10 µM", "value": 106, "unit": "%"}, {"measurement": "viability, T/C", "setting": "[3]", "value": 73.7, "unit": "%"}, {"measurement": "viability, T/C", "setting": "[4]", "value": 77.9, "unit": "%"}, {"measurement": "viability, T/C", "setting": "second compound 0.01 µM, first compound 0.316 µM", "value": 84.7, "unit": "%"}, {"measurement": "viability, T/C", "setting": "second compound 0.01 µM, first compound 1 µM", "value": 86.9, "unit": "%"}, {"measurement": "viability, T/C", "setting": "second compound 0.01 µM, first compound 3.16 µM", "value": 85.5, "unit": "%"}, {"measurement": "viability, T/C", "setting": "second compound 0.01 µM, first compound 10 µM", "value": 77.3, "unit": "%"}, {"measurement": "viability, T/C", "setting": "[5]", "value": 40.9, "unit": "%"}, {"measurement": "viability, T/C", "setting": "[6]", "value": 50, "unit": "%"}, {"measurement": "viability, T/C", "setting": "second compound 0.0316 µM, first compound 0.316 µM", "value": 48.1, "unit": "%"}, {"measurement": "viability, T/C", "setting": "second compound 0.0316 µM, first compound 1 µM", "value": 49.7, "unit": "%"}, {"measurement": "viability, T/C", "setting": "second compound 0.0316 µM, first compound 3.16 µM", "value": 54.9, "unit": "%"}, {"measurement": "viability, T/C", "setting": "second compound 0.0316 µM, first compound 10 µM", "value": 48.7, "unit": "%"}, {"measurement": "viability, T/C", "setting": "[7]", "value": 19.3, "unit": "%"}, {"measurement": "viability, T/C", "setting": "[8]", "value": 22, "unit": "%"}, {"measurement": "viability, T/C", "setting": "second compound 0.1 µM, first compound 0.316 µM", "value": 22.8, "unit": "%"}, {"measurement": "viability, T/C", "setting": "second compound 0.1 µM, first compound 1 µM", "value": 21.9, "unit": "%"}, {"measurement": "viability, T/C", "setting": "second compound 0.1 µM, first compound 3.16 µM", "value": 23, "unit": "%"}, {"measurement": "viability, T/C", "setting": "second compound 0.1 µM, first compound 10 µM", "value": 20.7, "unit": "%"}, {"measurement": "viability, T/C", "setting": "[9]", "value": 7.52, "unit": "%"}, {"measurement": "viability, T/C", "setting": "[10]", "value": 8.48, "unit": "%"}, {"measurement": "viability, T/C", "setting": "second compound 0.316 µM, first compound 0.316 µM", "value": 7.48, "unit": "%"}, {"measurement": "viability, T/C", "setting": "second compound 0.316 µM, first compound 1 µM", "value": 9.8, "unit": "%"}, {"measurement": "viability, T/C", "setting": "second compound 0.316 µM, first compound 3.16 µM", "value": 10.3, "unit": "%"}, {"measurement": "viability, T/C", "setting": "second compound 0.316 µM, first compound 10 µM", "value": 7.69, "unit": "%"}, {"measurement": "viability, T/C", "setting": "[11]", "value": 1.88, "unit": "%"}, {"measurement": "viability, T/C", "setting": "[12]", "value": 2.05, "unit": "%"}, {"measurement": "viability, T/C", "setting": "second compound 1 µM, first compound 0.316 µM", "value": 2.83, "unit": "%"}, {"measurement": "viability, T/C", "setting": "second compound 1 µM, first compound 1 µM", "value": 2.99, "unit": "%"}, {"measurement": "viability, T/C", "setting": "second compound 1 µM, first compound 3.16 µM", "value": 3.46, "unit": "%"}, {"measurement": "viability, T/C", "setting": "second compound 1 µM, first compound 10 µM", "value": 3.33, "unit": "%"}]}, {"smiles": "Cn1ncnc1[C@H]1c2n[nH]c(=O)c3cc(F)cc(c23)N[C@@H]1c1ccc(F)cc1", "note": "+ COc1c(OCCCN2CCOCC2)ccc2c3n(c(=NC(=O)c4cnc(N)nc4)nc12)CCN3", "values": [{"measurement": "IC50", "setting": "second compound 0.00316 µM", "value": "> 100", "unit": "nM"}, {"measurement": "IC50", "setting": "second compound 0.01 µM", "value": "> 100", "unit": "nM"}, {"measurement": "IC50", "setting": "second compound 0.0316 µM", "value": "< 0.316", "unit": "nM"}, {"measurement": "IC50", "setting": "second compound 0.1 µM", "value": "< 0.316", "unit": "nM"}, {"measurement": "IC50", "setting": "second compound 0.316 µM", "value": "< 0.316", "unit": "nM"}, {"measurement": "IC50", "setting": "second compound 1 µM", "value": "< 0.316", "unit": "nM"}, {"measurement": "viability, T/C", "setting": "second compound 0.00316 µM, first compound 0.000316 µM", "value": 83, "unit": "%"}, {"measurement": "viability, T/C", "setting": "second compound 0.00316 µM, first compound 0.001 µM", "value": 102, "unit": "%"}, {"measurement": "viability, T/C", "setting": "second compound 0.00316 µM, first compound 0.00316 µM", "value": 93.9, "unit": "%"}, {"measurement": "viability, T/C", "setting": "second compound 0.00316 µM, first compound 0.01 µM", "value": 85.2, "unit": "%"}, {"measurement": "viability, T/C", "setting": "[1]", "value": 81.6, "unit": "%"}, {"measurement": "viability, T/C", "setting": "[2]", "value": 78.5, "unit": "%"}, {"measurement": "viability, T/C", "setting": "second compound 0.01 µM, first compound 0.000316 µM", "value": 71, "unit": "%"}, {"measurement": "viability, T/C", "setting": "second compound 0.01 µM, first compound 0.001 µM", "value": 85.1, "unit": "%"}, {"measurement": "viability, T/C", "setting": "second compound 0.01 µM, first compound 0.00316 µM", "value": 81.1, "unit": "%"}, {"measurement": "viability, T/C", "setting": "second compound 0.01 µM, first compound 0.01 µM", "value": 72.1, "unit": "%"}, {"measurement": "viability, T/C", "setting": "[3]", "value": 67.3, "unit": "%"}, {"measurement": "viability, T/C", "setting": "[4]", "value": 68.2, "unit": "%"}, {"measurement": "viability, T/C", "setting": "second compound 0.0316 µM, first compound 0.000316 µM", "value": 44.6, "unit": "%"}, {"measurement": "viability, T/C", "setting": "second compound 0.0316 µM, first compound 0.001 µM", "value": 39.1, "unit": "%"}, {"measurement": "viability, T/C", "setting": "second compound 0.0316 µM, first compound 0.00316 µM", "value": 41, "unit": "%"}, {"measurement": "viability, T/C", "setting": "second compound 0.0316 µM, first compound 0.01 µM", "value": 43, "unit": "%"}, {"measurement": "viability, T/C", "setting": "[5]", "value": 39.3, "unit": "%"}, {"measurement": "viability, T/C", "setting": "[6]", "value": 35.8, "unit": "%"}, {"measurement": "viability, T/C", "setting": "second compound 0.1 µM, first compound 0.000316 µM", "value": 19, "unit": "%"}, {"measurement": "viability, T/C", "setting": "second compound 0.1 µM, first compound 0.001 µM", "value": 18.1, "unit": "%"}, {"measurement": "viability, T/C", "setting": "second compound 0.1 µM, first compound 0.00316 µM", "value": 18.2, "unit": "%"}, {"measurement": "viability, T/C", "setting": "second compound 0.1 µM, first compound 0.01 µM", "value": 18.9, "unit": "%"}, {"measurement": "viability, T/C", "setting": "[7]", "value": 19.9, "unit": "%"}, {"measurement": "viability, T/C", "setting": "[8]", "value": 17.4, "unit": "%"}, {"measurement": "viability, T/C", "setting": "second compound 0.316 µM, first compound 0.000316 µM", "value": 6.63, "unit": "%"}, {"measurement": "viability, T/C", "setting": "second compound 0.316 µM, first compound 0.001 µM", "value": 6.64, "unit": "%"}, {"measurement": "viability, T/C", "setting": "second compound 0.316 µM, first compound 0.00316 µM", "value": 7.07, "unit": "%"}, {"measurement": "viability, T/C", "setting": "second compound 0.316 µM, first compound 0.01 µM", "value": 7.8, "unit": "%"}, {"measurement": "viability, T/C", "setting": "[9]", "value": 6.66, "unit": "%"}, {"measurement": "viability, T/C", "setting": "[10]", "value": 5.37, "unit": "%"}, {"measurement": "viability, T/C", "setting": "second compound 1 µM, first compound 0.000316 µM", "value": 1.68, "unit": "%"}, {"measurement": "viability, T/C", "setting": "second compound 1 µM, first compound 0.001 µM", "value": 1.6, "unit": "%"}, {"measurement": "viability, T/C", "setting": "second compound 1 µM, first compound 0.00316 µM", "value": 1.91, "unit": "%"}, {"measurement": "viability, T/C", "setting": "second compound 1 µM, first compound 0.01 µM", "value": 1.67, "unit": "%"}, {"measurement": "viability, T/C", "setting": "[11]", "value": 1.93, "unit": "%"}, {"measurement": "viability, T/C", "setting": "[12]", "value": 1.28, "unit": "%"}]}]}
